Results reported in the supplement of paper PMC10883282.

Key:
Test in all cases: relative viability vs DMSO control (72 h) (fraction); higher = more viable cells
HS729 = system: HS729
In short: (§1)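 Sarcoma cell lines were grown in 384-well plates seeded toward 80–90% confluence and exposed 24 h later to serially diluted compound. After 72 h at 37 °C and 5% CO2, with 0.1% DMSO vehicle and a 5 µM positive control on the plates, ATPLite was read. Relative viability, given as percent growth averaged over up to triplicate wells, was rescaled so that 1 is full and 0 is none.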

KHOS-240S = system: KHOS-240S
In short: as §1

SYO-1 = system: SYO-1
In short: as §1

MES-SA = system: MES-SA
In short: as §1

SW1353 = system: SW1353
In short: as §1

G401 = system: G401
In short: as §1

SW684 = system: SW684
In short: as §1

SK-LMS-1 = system: SK-LMS-1
In short: as §1

A204 = system: A204
In short: as §1

SW982 = system: SW982
In short: as §1

SW872 = system: SW872
In short: as §1

SK-ES-1 = system: SK-ES-1
In short: as §1

CN(C)C[C@@H]1CCn2cc(c3ccccc32)C2=C(C(=O)NC2=O)c2cn(c3ccccc23)CCO1 [Ruboxistaurin]
Settings | relative viability
A204, 0.00017 µM | 1.08
A204, 0.00051 µM | 1.07
A204, 0.00152 µM | 1.08
A204, 0.00457 µM | 1.06
A204, 0.01372 µM | 1.06
A204, 0.04115 µM | 1.08
A204, 0.1235 µM | 1.03
A204, 0.3704 µM | 1.05
A204, 1.111 µM | 0.881
A204, 3.333 µM | 0.808
A204, 10 µM | 0.0478
G401, 0.00017 µM | 1.03
G401, 0.00051 µM | 1.01
G401, 0.00152 µM | 0.988
G401, 0.00457 µM | 1.01
G401, 0.01372 µM | 1.02
G401, 0.04115 µM | 0.961
G401, 0.1235 µM | 1.02
G401, 0.3704 µM | 1.01
G401, 1.111 µM | 0.958
G401, 3.333 µM | 0.938
G401, 10 µM | 0.0283
HS729, 0.00017 µM | 0.917
HS729, 0.00051 µM | 0.936
HS729, 0.00152 µM | 0.8749
HS729, 0.00457 µM | 0.882
HS729, 0.01372 µM | 0.895
HS729, 0.04115 µM | 0.939
HS729, 0.1235 µM | 0.894
HS729, 0.3704 µM | 0.819
HS729, 1.111 µM | 0.917
HS729, 3.333 µM | 0.835
HS729, 10 µM | 0.812
KHOS-240S, 0.00017 µM | 1.04
KHOS-240S, 0.00051 µM | 1.05
KHOS-240S, 0.00152 µM | 1.03
KHOS-240S, 0.00457 µM | 1.04
KHOS-240S, 0.01372 µM | 1.02
KHOS-240S, 0.04115 µM | 1.02
KHOS-240S, 0.1235 µM | 1.03
KHOS-240S, 0.3704 µM | 1.014
KHOS-240S, 1.111 µM | 1.04
KHOS-240S, 3.333 µM | 1.03
KHOS-240S, 10 µM | 0.715
MES-SA, 0.00017 µM | 0.918
MES-SA, 0.00051 µM | 0.909
MES-SA, 0.00152 µM | 0.9276
MES-SA, 0.00457 µM | 0.9006
MES-SA, 0.01372 µM | 0.923
MES-SA, 0.04115 µM | 0.91
MES-SA, 0.1235 µM | 0.898
MES-SA, 0.3704 µM | 0.887
MES-SA, 1.111 µM | 0.84
MES-SA, 3.333 µM | 0.7551
MES-SA, 10 µM | 0.428
SK-ES-1, 0.00017 µM | 1.03
SK-ES-1, 0.00051 µM | 1.06
SK-ES-1, 0.00152 µM | 1.07
SK-ES-1, 0.00457 µM | 1.08
SK-ES-1, 0.01372 µM | 1.07
SK-ES-1, 0.04115 µM | 1.02
SK-ES-1, 0.1235 µM | 1.01
SK-ES-1, 0.3704 µM | 0.963
SK-ES-1, 1.111 µM | 0.869
SK-ES-1, 3.333 µM | 0.74
SK-ES-1, 10 µM | 0.421
SK-LMS-1, 0.00017 µM | 1.05
SK-LMS-1, 0.00051 µM | 1.02
SK-LMS-1, 0.00152 µM | 1.05
SK-LMS-1, 0.00457 µM | 1.05
SK-LMS-1, 0.01372 µM | 1.09
SK-LMS-1, 0.04115 µM | 1.08
SK-LMS-1, 0.1235 µM | 1.05
SK-LMS-1, 0.3704 µM | 0.995
SK-LMS-1, 1.111 µM | 0.922
SK-LMS-1, 3.333 µM | 0.778
SK-LMS-1, 10 µM | 0.4619
SW684, 0.00017 µM | 1.12
SW684, 0.00051 µM | 1.157
SW684, 0.00152 µM | 1.158
SW684, 0.00457 µM | 1.17
SW684, 0.01372 µM | 1.16
SW684, 0.04115 µM | 1.11
SW684, 0.1235 µM | 1.15
SW684, 0.3704 µM | 1.16
SW684, 1.111 µM | 1.14
SW684, 3.333 µM | 1.15
SW684, 10 µM | 0.857
SW872, 0.00017 µM | 1
SW872, 0.00051 µM | 1.04
SW872, 0.00152 µM | 1.02
SW872, 0.00457 µM | 1.06
SW872, 0.01372 µM | 0.989
SW872, 0.04115 µM | 1.04
SW872, 0.1235 µM | 1.01
SW872, 0.3704 µM | 1.02
SW872, 1.111 µM | 0.9094
SW872, 3.333 µM | 0.846
SW872, 10 µM | 0.599
SW982, 0.00017 µM | 1.03
SW982, 0.00051 µM | 1.03
SW982, 0.00152 µM | 1.04
SW982, 0.00457 µM | 1.03
SW982, 0.01372 µM | 1.05
SW982, 0.04115 µM | 1.04
SW982, 0.1235 µM | 1.04
SW982, 0.3704 µM | 1.03
SW982, 1.111 µM | 0.949
SW982, 3.333 µM | 0.846
SW982, 10 µM | 0.349
SW1353, 0.00017 µM | 1.02
SW1353, 0.00051 µM | 1.01
SW1353, 0.00152 µM | 0.983
SW1353, 0.00457 µM | 0.99
SW1353, 0.01372 µM | 0.975
SW1353, 0.04115 µM | 0.994
SW1353, 0.1235 µM | 0.961
SW1353, 0.3704 µM | 0.977
SW1353, 1.111 µM | 0.894
SW1353, 3.333 µM | 0.827
SW1353, 10 µM | 0.252
SYO-1, 0.00017 µM | 0.962
SYO-1, 0.00051 µM | 0.9554
SYO-1, 0.00152 µM | 0.962
SYO-1, 0.00457 µM | 0.941
SYO-1, 0.01372 µM | 0.931
SYO-1, 0.04115 µM | 0.933
SYO-1, 0.1235 µM | 0.899
SYO-1, 0.3704 µM | 0.849
SYO-1, 1.111 µM | 0.79
SYO-1, 3.333 µM | 0.347
SYO-1, 10 µM | -0.0266
